The data set can be described thus: Absorption maximum after colour development in a photographic silver halide layer according to Use Example I. It counts as physicochemical. The following applies: for Abs.max., first of two maxima (subsidiary maximum) / Abs.max., second of two maxima (absorption maximum): pyrazolone coupling agents. As to the method:
The compounds of the formulae which follow are prepared according to methods which are in themselves known, from the corresponding 4-equivalentcoupling agents (the corresponding compounds with hydrogen in the position marked with *, in place of the substituents drawn). With regard to methods of manufacture, compare DT-OS or DT-AS 1,236,332, 2,043,271, 1,547,672 or 1,187,477. Next to the formula, the absorption maximum in nm is specified in each case (see footnote to Table I). ##SPC8##
*)After colour development of the coupling agents in a photographic silve
halide layer according to Use Example I
0.3 mmol of coupling agent of the formula (215) is dissolved in 2.0 ml of tricresyl phosphate/methylene chloride (3:7). The methylene chloride is evaporated off, 6.0 ml of an 8% strength aqueous solution of sodium isopropylnaphthalene-sulphonate, 20.0 ml of 6% strength gelatine solution and 3.4 ml of water are added and the mixture is adjusted to pH 6.5 and emulsified for 5 minutes by means of an ultrasonic apparatus with an output of 100 watt.
5.0 of coupling agent emulsion freshly treated with ultrasonics, 3.3 ml of silver bromide emulsion of pH 6.5, containing 1.4% of silver and 6.0% of gelatine, 2.0 ml of 1% strength aqueous solution of the hardener of the formula [formula] and 1.7 ml of water are mixed with one another and cast at 40°C on a substrated glass plate of size 13 cm × 18 cm. After solidifying at 10° C, the plate is dried in a drying cabinet with circulating air at 32° C.
A strip cut to 4.0 cm × 6.5 cm is exposed to 500 Lux/cm^2 under a step wedge for 2 seconds and is subsequently treated at 24° C as follows: […]

Data on 50 compounds can be found in patent US3984432A, “Color photographic recording material” (priority 1973, dated 1976).

Turning to `CCOP(=O)(CCCc1ccc(NC(=O)CC(=O)c2ccccc2)cc1)OCC` [(101)], the “Abs.max. (single maximum)” value is reported as 437 nm.
Consider `CCOP(=O)(Cc1ccc(NC(=O)CC(=O)c2ccccc2)cc1)OCC` [(102)], for which the “Abs.max. (single maximum)” value worked out at 438 nm.
`CCOP(=O)(CCCc1ccc(NC(=O)CC(=O)C(C)(C)C)cc1)OCC` [(103)]: the “Abs.max. (single maximum)” value was 429 nm.
On to `CCOP(=O)(CCCN(C)c1cccc(NC(=O)CC(=O)c2ccccc2)c1)OCC` [(104)], for which the “Abs.max. (single maximum)” value was 435 nm.
In the case of `CCCCOP(=O)(CC(=O)Nc1cccc(NC(=O)CC(=O)C(C)(C)C)c1)OCCCC` [(105)], the “Abs.max. (single maximum)” value came out at 436 nm.
Take `CCOP(=O)(CC(=O)Nc1cccc(NC(=O)CC(=O)c2ccccc2)c1)OCC` [(106)]: the “Abs.max. (single maximum)” value turned out to be 442 nm.
Same read-out and setting: in the case of `CCOP(=O)(OCC)C(C)(C)NC(=O)c1cccc(NC(=O)c2cccc(NC(=O)CC(=O)c3ccccc3)c2)c1` [(107)] it was 444 nm.
Still for that read-out and setting: the result for `CCOP(=O)(OCC)C(C)(C)NC(=O)c1cccc(NC(=O)CC(=O)c2ccccc2)c1` [(108)] reads 440 nm; that for `CCOP(=O)(OCC)C(C)(C)NC(=O)c1cccc(NC(=O)CC(=O)c2ccc([N+](=O)[O-])cc2)c1` [(110)], 440 nm.
Consider `CCOP(=O)(OCC)C(C)(C)NC(=O)c1cc(NC(=O)CC(=O)c2ccccc2)cc(C(=O)NC(C)(C)P(=O)(OCC)OCC)c1` [(111)], for which the “Abs.max. (single maximum)” value came out at 440 nm.
As to `CCOP(=O)(CCCOc1cccc(C(=O)Nc2cccc(C(=O)CC(=O)Nc3cc(C)ccc3OC)c2)c1)OCC` [(112)], the “Abs.max. (single maximum)” value came out at 440 nm.
In the case of `CCCCOP(=O)(CCCOc1cc(OCCCP(=O)(OCCCC)OCCCC)cc(C(=O)Nc2ccc(NC(=O)CC(=O)C(C)(C)C)cc2)c1)OCCCC` [(114)], the “Abs.max. (single maximum)” value worked out at 431 nm.
For the compound `CCCCOP(=O)(CCCOc1cc(OCCCP(=O)(OCCCC)OCCCC)cc(C(=O)Nc2cccc(NC(=O)CC(=O)C(C)(C)C)c2)c1)OCCCC` [(115)], the “Abs.max. (single maximum)” value is on record as 435 nm.
For the compound `CCCCOP(=O)(CCCOc1cc(OCCCP(=O)(OCCCC)OCCCC)cc(C(=O)Nc2ccc(Cl)c(NC(=O)CC(=O)C(C)(C)C)c2)c1)OCCCC` [(116)], the “Abs.max. (single maximum)” value is 444 nm.
Consider `CCCCOP(=O)(CCCOc1cc(OCCCP(=O)(OCCCC)OCCCC)cc(C(=O)Nc2ccc(C)c(NC(=O)CC(=O)C(C)(C)C)c2)c1)OCCCC` [(117)], for which the “Abs.max. (single maximum)” value was 445 nm.
With `CCCCOP(=O)(CCCc1ccc(NC(=O)c2ccc(OC)c(NC(=O)CC(=O)C(C)(C)C)c2)cc1)OCCCC` [(118)], the “Abs.max. (single maximum)” value is 438 nm.
For the compound `CCCCC(CC)COP(=O)(CCCOc1cccc(C(=O)Nc2cccc(C(=O)CC(=O)Nc3cc(C)ccc3OC)c2)c1)OCC(CC)CCCC` (stereo not shown) [(120)], the “Abs.max. (single maximum)” value was 434 nm.
As to `CCCCOP(=O)(CCCOc1cccc(C(=O)Nc2cccc(C(=O)CC(=O)Nc3cc(C)ccc3OC)c2)c1)OCCCC` [(121)], the “Abs.max. (single maximum)” value turned out to be 434 nm.
Take `CCCCC(CC)COP(=O)(CCCOc1cccc(NC(=O)CC(=O)c2ccccc2)c1)OCC(CC)CCCC` (stereo not shown) [(122)]: the “Abs.max. (single maximum)” value was 436 nm.
Regarding `CCCCOP(=O)(CCCOc1cccc(NC(=O)CC(=O)c2ccccc2)c1)OCCCC` [(123)], the “Abs.max. (single maximum)” value is reported as 436 nm.
With `CCCCOP(=O)(CCCc1ccc(NC(=O)CC(=O)c2ccccc2)cc1)OCCCC` [(124)], the “Abs.max. (single maximum)” value is listed as 436 nm.
As to `CCCCOP(=O)(CCCc1ccc(NC(=O)CC(=O)c2ccc(Cl)cc2)cc1)OCCCC` [(125)], the “Abs.max. (single maximum)” value came to 440 nm.
Regarding `CCCCOP(=O)(CCCc1ccc(NC(=O)c2ccc(OC)c(NC(=O)CC(=O)c3ccc(OC)cc3)c2)cc1)OCCCC` [(126)], the “Abs.max. (single maximum)” value is recorded as 448 nm.
The same measure, in the same setting: in the case of `COc1ccc(C(=O)NCCCP(=O)(OC(C)C)OC(C)C)cc1NC(=O)CC(=O)c1ccc(Cl)cc1` [(127)] it was 444 nm; in that of `CC(C)(C)P(=O)(Oc1ccccc1)Oc1ccc(NC(=O)CC(=O)c2ccccc2)cc1` (stereo not shown) [(129)], 440 nm; in that of `COc1ccc(C(=O)CC(=O)Nc2ccc(OP(=O)(Oc3ccccc3)C(C)(C)C)cc2)cc1` (stereo not shown) [(130)], 437 nm.
On to `COc1ccc(C(=O)CC(=O)Nc2cc(C(=O)NCCCP(=O)(OC(C)C)OC(C)C)ccc2C(=O)NCCCP(=O)(OC(C)C)OC(C)C)cc1` [(131)], for which the “Abs.max. (single maximum)” value amounted to 442 nm.
In the case of `CC(C)CCOP(=O)(CCCc1ccc(NC(=O)CC(=O)c2ccc(Cl)cc2)cc1)OCCC(C)C` [(132)], the “Abs.max. (single maximum)” value came to 438 nm.
`CCCCC(CC)COP(=O)(CCCNC(=O)c1ccc(Cl)c(NC(=O)CC(=O)c2ccccc2OC)c1)OCC(CC)CCCC` (stereo not shown) [(133)]: the “Abs.max. (single maximum)” value came out at 436 nm.
Still for that read-out and setting: the result for `CCCCC(CC)COP(=O)(CCNC(=O)c1ccc(Cl)c(NC(=O)CC(=O)c2ccc(OC)cc2)c1)OCC(CC)CCCC` (stereo not shown) [(134)] reads 447 nm; that for `CCCCOP(=O)(Cc1ccc(CP(=O)(OCCCC)OCCCC)c(NC(=O)c2ccc(OC)c(NC(=O)CC(=O)c3ccc(C(C)(C)C)cc3)c2)c1)OCCCC` [(136)], 440 nm.
With `CCCCOP(=O)(Cc1ccc(CP(=O)(OCCCC)OCCCC)c(NC(=O)c2ccc(OC)c(NC(=O)CC(=O)c3ccccc3OCC)c2)c1)OCCCC` [(137)], the “Abs.max. (single maximum)” value is listed as 425 nm.
Consider `CCCCOP(=O)(CCCC)Oc1cccc(NC(=O)Cc2ccc(NC(=O)CC(=O)c3ccccc3Cl)cc2)c1` (stereo not shown) [(138)], for which the “Abs.max. (single maximum)” value is recorded as 442 nm.
Consider `Cc1ccc(C(=O)NCCCP2(=O)OCC(C)(C)CO2)cc1NC(=O)CC(=O)c1ccc(Cl)cc1` [(139)], for which the “Abs.max. (single maximum)” value is given as 441 nm.
For the compound `CC(C)OP(=O)(OC(C)C)C1(C)CC(NC(=O)c2ccc(Cl)c(NC(=O)CC(=O)c3ccc(C(C)(C)C)cc3)c2)CC(C)(C)C1` (stereo not shown) [(140)], the “Abs.max. (single maximum)” value is 439 nm.
`CCCCOP(=O)(CCCC)Nc1cccc(NC(=O)c2cc(NC(=O)CC(=O)c3ccccc3)ccc2Cl)c1` (stereo not shown) [(141)]: the “Abs.max. (single maximum)” value amounted to 438 nm.
On the same count and under the same terms, in the case of `CCCCOP(=O)(OCCCC)C(CC)OC(=O)c1ccc(NC(=O)CC(=O)c2ccccc2OC)cc1` (stereo not shown) [(142)] it was 435 nm; in that of `CCCCOP(=O)(Cc1ccc(CP(=O)(OCCCC)OCCCC)c(NC(=O)c2ccc(C)c(NC(=O)CC(=O)c3ccccc3Cl)c2)c1)OCCCC` [(143)], 440 nm.
For `CC(C)OP(=O)(OC(C)C)C1(C)CC(NC(=O)c2ccc(Oc3ccccc3)c(NC(=O)CC(=O)c3ccc(Cl)cc3)c2)CC(C)(C)C1` (stereo not shown) [(144)], the “Abs.max. (single maximum)” value came out at 441 nm.
Turning to `CCCCCCOP(=O)(OCCCCCC)c1ccc(NC(=O)c2cccc(NC(=O)CC(=O)c3ccc(Cl)cc3)c2)cc1` [(145)], the “Abs.max. (single maximum)” value is 449 nm.
Consider `COc1ccc(C(=O)C(Cl)C(=O)Nc2ccc(OP(=O)(Oc3ccccc3)C(C)(C)C)cc2)cc1` (stereo not shown) [(146)], for which the “Abs.max. (single maximum)” value was 437 nm.
On the same count and under the same terms, in the case of `CCCCOP(=O)(CCCc1ccc(NC(=O)C(Cl)C(=O)c2ccccc2)cc1)OCCCC` (stereo not shown) [(147)] it was 436 nm.
As for `CCOP(=O)(CCCOc1cccc(C(=O)Nc2ccc(C(=O)NC3=NN(c4c(Cl)cc(Cl)cc4Cl)C(=O)C3)cc2)c1)OCC` [(201)], the “Abs.max., first of two maxima (subsidiary maximum)” value (shortened to “Abs.max., first of two maxima”) was 432 nm and the “Abs.max., second of two maxima (absorption maximum)” value (“Abs.max., second of two maxima” for short) is 542 nm.
In the same order, the values of `CCOP(=O)(CCCOc1cccc(C(=O)NC2=NN(c3c(Cl)cc(Cl)cc3Cl)C(=O)C2)c1)OCC` [(202)] are 434 nm and 535 nm.
In the same order, the values of `CCOP(=O)(CCCOc1ccc(C(=O)Nc2ccc(C(=O)NC3=NN(c4c(Cl)cc(Cl)cc4Cl)C(=O)C3)cc2)cc1)OCC` [(203)] are 434 nm and 539 nm.
As for `CCOP(=O)(CCCOc1ccc(C(=O)NC2=NN(c3c(Cl)cc(Cl)cc3Cl)C(=O)C2)cc1)OCC` [(204)], the “Abs.max., first of two maxima” value came to 434 nm and the “Abs.max., second of two maxima” value is on record as 534 nm.
Regarding `CCOP(=O)(CCCOc1cccc(C(=O)Nc2cccc(C(=O)NC3=NN(c4c(Cl)cc(Cl)cc4Cl)C(=O)C3)c2)c1)OCC` [(205)], the “Abs.max., first of two maxima” value is listed as 434 nm and the “Abs.max., second of two maxima” value is reported as 542 nm.
Take `CCOP(=O)(CCCOc1ccc(C(=O)Nc2cccc(C(=O)NC3=NN(c4c(Cl)cc(Cl)cc4Cl)C(=O)C3)c2)cc1)OCC` [(206)]: the “Abs.max., first of two maxima” value is 434 nm and the “Abs.max., second of two maxima” value was found to be 542 nm.
Take `CCOP(=O)(CCCCCOc1cccc(C(=O)Nc2ccc(C(=O)NC3=NN(c4c(Cl)cc(Cl)cc4Cl)C(=O)C3)cc2)c1)OCC` [(207)]: the “Abs.max., first of two maxima” value came to 434 nm and the “Abs.max., second of two maxima” value amounted to 540 nm.
For `CCOP(=O)(CCCOc1cc(OCCCP(=O)(OCC)OCC)cc(C(=O)Nc2ccc(C(=O)NC3=NN(c4c(Cl)cc(Cl)cc4Cl)C(=O)C3)cc2)c1)OCC` [(208)], in that order: 434 nm and 546 nm.
